Measured values taken from paper PMC11822212, “High-throughput screening identifies Aurora kinase B as a critical therapeutic target for Merkel cell carcinoma” (Nature Communications, 2025).
Values joined by “and” are separate entries in the source; they are usually repeats but may differ in a detail not shown here. Equal values may be shown once. Where a name gives a salt, the structure may show the parent alone. Read-outs that look alike come from different tables or passages of the source.

Tests used:
MCC13 cells (VN-MCC) = test: qHTS cell viability (CellTiter-Glo, 72 h; primary and follow-up small molecule screen); assay type: cell-based, human
MCC26 cells (VN-MCC) = test: as above; assay type: cell-based, human
UISO cells (VN-MCC) = test: as above; assay type: cell-based, human
WAGA cells (VP-MCC) = test: as above; assay type: cell-based, human
MKL-1 cells (VP-MCC) = test: as above; assay type: cell-based, human
MKL-2 cells (VP-MCC) = test: as above; assay type: cell-based, human
HACAT cells = test: qHTS cell viability (CellTiter-Glo, 72 h; primary screen), control cell line; assay type: cell-based, human
HEK293T cells = test: as above; assay type: cell-based, human
NIH-3T3 cells = test: as above; assay type: cell-based, mouse
CRL-7250 cells = test: as above; assay type: cell-based
[1] = tested on: MCC cell lines (WAGA, MKL-1, MKL-2, MCC13, MCC26, UISO); test: qHTS cell viability, all six MCC cell lines as a group (mean AUC, MCC.avg); assay type: cell-based, human
[2] = tested on: VP-MCC cell lines (WAGA, MKL-1, MKL-2); test: qHTS cell viability, VP-MCC cell lines as a group (mean AUC, VP.MCC.avg); assay type: cell-based, human
[3] = tested on: VN-MCC cell lines (MCC13, MCC26, UISO); test: qHTS cell viability, VN-MCC cell lines as a group (mean AUC, VN.MCC.avg); assay type: cell-based, human
[4] = tested on: control cell lines (HACAT, HEK293T, CRL-7250, NIH-3T3); test: qHTS cell viability, control cell lines as a group (mean AUC, Control.avg); assay type: cell-based
[5] = tested on: six MCC cell lines and four control cell lines; test: qHTS cell viability, all 10 cell lines screened; assay type: cell-based
[6] = MIPE library, 11-point DRC, sheet S2E
[7] = MIPE library, 11-point DRC, control cell line, sheet S2E

CCOC(=O)[C@@](C)(N)Cc1ccc(O)c(O)c1 [Methyldopate hydrochloride]
MCC13_AUC (MCC13 cells (VN-MCC); NPC library, qHTS dose-response AUC, MCC13): 447.588
MCC26_AUC (MCC26 cells (VN-MCC); NPC library, qHTS dose-response AUC, MCC26): 437.99
UISO_AUC (UISO cells (VN-MCC); NPC library, qHTS dose-response AUC, UISO): 416.553
WAGA_AUC (WAGA cells (VP-MCC); NPC library, qHTS dose-response AUC, WAGA): 402.509
MKL1_AUC (MKL-1 cells (VP-MCC); NPC library, qHTS dose-response AUC, MKL1): 366.496
MKL2_AUC (MKL-2 cells (VP-MCC); NPC library, qHTS dose-response AUC, MKL2): 398.602
HACAT_AUC (HACAT cells; NPC library, qHTS dose-response AUC, HACAT control): 480.325
HEK293T_AUC (HEK293T cells; NPC library, qHTS dose-response AUC, HEK293T control): 443.954
NIH3T3_AUC (NIH-3T3 cells; NPC library, qHTS dose-response AUC, NIH3T3 control): 431.18
CRL7250_AUC (CRL-7250 cells; NPC library, qHTS dose-response AUC, CRL7250 control): 412.089
MCC_Avg_AUC ([1]; NPC library, mean AUC of six MCC cell lines): 411.623
VP-MCC_Avg_AUC ([2]; NPC library, mean AUC of VP-MCC cell lines): 389.202
Control-VP-MCC ([2]; NPC library, therapeutic window: Control avg AUC minus VP-MCC avg AUC): 52.6846
VN-MCC_Avg_AUC ([3]; NPC library, mean AUC of VN-MCC cell lines): 434.044
Control-VN-MCC ([3]; NPC library, therapeutic window: Control avg AUC minus VN-MCC avg AUC): 7.843
Control_Avg_AUC ([4]; NPC library, mean AUC of control cell lines): 441.887
Control-MCC ([5]; NPC library, therapeutic window: Control avg AUC minus MCC avg AUC): 30.264

CCCCCCCCCCCC[N+](C)(C)CCOc1ccccc1 [Domiphen bromide]
MCC13_AUC (MCC13 cells (VN-MCC)): 479.965
MCC26_AUC (MCC26 cells (VN-MCC)): 403.074
UISO_AUC (UISO cells (VN-MCC)): 370.326
WAGA_AUC (WAGA cells (VP-MCC)): 371.251
MKL1_AUC (MKL-1 cells (VP-MCC)): 361.63
MKL2_AUC (MKL-2 cells (VP-MCC)): 321.555
HACAT_AUC (HACAT cells): 409.601
HEK293T_AUC (HEK293T cells): 413.225
NIH3T3_AUC (NIH-3T3 cells): 435.478
CRL7250_AUC (CRL-7250 cells): 449.796
MCC_Avg_AUC [1]: 384.634
Control-VP-MCC [2]: 75.5464
VP-MCC_Avg_AUC [2]: 351.479
Control-VN-MCC [3]: 9.236
VN-MCC_Avg_AUC [3]: 417.789
Control_Avg_AUC [4]: 427.025
Control-MCC [5]: 42.3914

CC(=O)SCC(Cc1ccccc1)C(=O)NCC(=O)OCc1ccccc1 (stereo not drawn) [Racecadotril]
MCC13_AUC (MCC13 cells (VN-MCC); [6]): 461.58
MCC13_AUC (MCC13 cells (VN-MCC); area under the dose-response curve, MCC13 cells, AUC<450 = reduced viability): 485.077
MCC26_AUC (MCC26 cells (VN-MCC); [6]): 488.688
MCC26_AUC (MCC26 cells (VN-MCC); area under the dose-response curve, MCC26 cells, AUC<450 = reduced viability): 492.456
UISO_AUC (UISO cells (VN-MCC); [6]): 428.805
UISO_AUC (UISO cells (VN-MCC); area under the dose-response curve, UISO cells, AUC<450 = reduced viability): 451.995
WAGA_AUC (WAGA cells (VP-MCC); [6]): 280.978
WAGA_AUC (WAGA cells (VP-MCC); area under the dose-response curve, WAGA cells, AUC<450 = reduced viability): 389.872
MKL1_AUC (MKL-1 cells (VP-MCC); [6]): 303.479
MKL1_AUC (MKL-1 cells (VP-MCC); area under the dose-response curve, MKL-1 cells, AUC<450 = reduced viability): 393.26
MKL2_AUC (MKL-2 cells (VP-MCC); [6]): 282.974
MKL2_AUC (MKL-2 cells (VP-MCC); area under the dose-response curve, MKL-2 cells, AUC<450 = reduced viability): 385.069
HACAT_AUC (HACAT cells; [7]): 479.748
HACAT_AUC (HACAT cells; area under the dose-response curve, HACAT control cells, AUC<450 = reduced viability): 454.884
HEK293T_AUC (HEK293T cells; [7]): 456.066
HEK293T_AUC (HEK293T cells; area under the dose-response curve, HEK293T control cells, AUC<450 = reduced viability): 472.387
NIH3T3_AUC (NIH-3T3 cells; [7]): 475.653
NIH3T3_AUC (NIH-3T3 cells; area under the dose-response curve, NIH3T3 control cells, AUC<450 = reduced viability): 480.677
CRL7250_AUC (CRL-7250 cells; [7]): 474.01
CRL7250_AUC (CRL-7250 cells; area under the dose-response curve, CRL7250 control cells, AUC<450 = reduced viability): 474.054
MCC_Avg_AUC ([1]; MIPE library, mean AUC of six MCC cell lines, sheet S2E): 374.417
Control-VP-MCC ([2]; MIPE library, Control AUC minus VP-MCC AUC (therapeutic window), sheet S2E): 182.226
VP-MCC_Avg_AUC ([2]; MIPE library, mean AUC of VP-MCC cell lines, sheet S2E): 289.144
Control-VN-MCC ([3]; MIPE library, Control AUC minus VN-MCC AUC (therapeutic window), sheet S2E): 11.6784
VN-MCC_Avg_AUC ([3]; MIPE library, mean AUC of VN-MCC cell lines, sheet S2E): 459.691
Control_Avg_AUC ([4]; MIPE library, mean AUC of control cell lines, sheet S2E): 471.369
Control-MCC ([5]; MIPE library, Control AUC minus MCC AUC (therapeutic window), sheet S2E): 96.952

CC(=O)OC1(c2ccccc2)CCN(CCc2ccccc2)CC1
MCC13_AUC (MCC13 cells (VN-MCC)): 419.397
MCC26_AUC (MCC26 cells (VN-MCC)): 420.097
UISO_AUC (UISO cells (VN-MCC)): 389.875
WAGA_AUC (WAGA cells (VP-MCC)): 388.929
MKL1_AUC (MKL-1 cells (VP-MCC)): 375.288
MKL2_AUC (MKL-2 cells (VP-MCC)): 382.375
HACAT_AUC (HACAT cells): 477.567
HEK293T_AUC (HEK293T cells): 449.554
NIH3T3_AUC (NIH-3T3 cells): 473.448
CRL7250_AUC (CRL-7250 cells): 457.662
MCC_Avg_AUC [1]: 395.993 and 395.994
Control-VP-MCC [2]: 82.3602
VP-MCC_Avg_AUC [2]: 382.197
Control-VN-MCC [3]: 54.768
VN-MCC_Avg_AUC [3]: 409.79
Control_Avg_AUC [4]: 464.558
Control-MCC [5]: 68.5641
